Test results as given in patent publication US20220144812A1, “QUINOLINE DERIVATIVES AND THEIR USE FOR THE TREATMENT OF CANCER” (Epizyme, Inc., priority 2019, published 2022).
Where two headings read alike, the source gives them in different places.

How the values were obtained:
CREBBP (1084-1701) = target: T1, CREBBP (1084-1701) (Homo sapiens, UniProt Q92793); test: Biochemical assay for CREBBP (1084-1701), SAMDI; conditions: SAMDI, read-out: CREBBP Biochemistry IC50
T1 construct: measured in the following biochemical assay using CREBBP (1084-1701); purchased
T1 sequence (Q92793 1084-1701): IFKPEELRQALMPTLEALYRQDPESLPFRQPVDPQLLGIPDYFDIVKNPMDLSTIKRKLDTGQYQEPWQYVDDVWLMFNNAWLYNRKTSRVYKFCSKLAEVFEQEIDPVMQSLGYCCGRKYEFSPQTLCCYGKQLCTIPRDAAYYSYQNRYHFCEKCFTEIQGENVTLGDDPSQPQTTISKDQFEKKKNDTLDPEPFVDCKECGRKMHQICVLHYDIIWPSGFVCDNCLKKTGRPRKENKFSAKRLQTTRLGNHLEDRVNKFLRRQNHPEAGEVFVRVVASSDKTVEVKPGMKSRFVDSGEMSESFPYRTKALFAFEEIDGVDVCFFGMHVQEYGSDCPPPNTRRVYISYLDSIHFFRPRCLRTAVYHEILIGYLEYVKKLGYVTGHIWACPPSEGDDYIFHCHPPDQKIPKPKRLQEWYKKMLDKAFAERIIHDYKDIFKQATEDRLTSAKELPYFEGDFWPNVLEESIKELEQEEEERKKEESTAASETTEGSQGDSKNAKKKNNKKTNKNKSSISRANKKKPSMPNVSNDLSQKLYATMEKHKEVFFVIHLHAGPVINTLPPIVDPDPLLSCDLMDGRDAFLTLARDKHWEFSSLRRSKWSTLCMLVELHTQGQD
Summary of the method: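 CREBBP (1084-1701) preincubated with compound 30 min at RT, then substrate mix (biotin-H3 11-25 K14R/K23R peptide, acetyl-CoA) added for 30 min at RT. Reaction stopped with formic acid, neutralised with sodium bicarbonate. Peptide acetylation read by SAMDI mass spectrometry to derive IC50.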

647V cells = test: High throughput proliferation (HTP) assay; format: cell-based; conditions: high throughput proliferation, read-out: CREBBP HTP IC50
Summary of the method: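 Exponentially growing 647V cells in DMEM with 15% FBS were treated in triplicate with increasing compound concentrations at 37° C, 5% CO2. Viable cell number was read by CellTiter-Glo luminescence on day 7; IC50 in micromolar.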

EP300 (P300(1048-1664)) = target: T2, EP300 (P300(1048-1664)) (Homo sapiens, UniProt Q09472); test: Biochemical assay for EP300, SAMDI; conditions: EP300, SAMDI; read-out: EP300 Biochemistry IC50
T2 construct: P300(1048-1664)
T2 sequence (Q09472 1048-1664): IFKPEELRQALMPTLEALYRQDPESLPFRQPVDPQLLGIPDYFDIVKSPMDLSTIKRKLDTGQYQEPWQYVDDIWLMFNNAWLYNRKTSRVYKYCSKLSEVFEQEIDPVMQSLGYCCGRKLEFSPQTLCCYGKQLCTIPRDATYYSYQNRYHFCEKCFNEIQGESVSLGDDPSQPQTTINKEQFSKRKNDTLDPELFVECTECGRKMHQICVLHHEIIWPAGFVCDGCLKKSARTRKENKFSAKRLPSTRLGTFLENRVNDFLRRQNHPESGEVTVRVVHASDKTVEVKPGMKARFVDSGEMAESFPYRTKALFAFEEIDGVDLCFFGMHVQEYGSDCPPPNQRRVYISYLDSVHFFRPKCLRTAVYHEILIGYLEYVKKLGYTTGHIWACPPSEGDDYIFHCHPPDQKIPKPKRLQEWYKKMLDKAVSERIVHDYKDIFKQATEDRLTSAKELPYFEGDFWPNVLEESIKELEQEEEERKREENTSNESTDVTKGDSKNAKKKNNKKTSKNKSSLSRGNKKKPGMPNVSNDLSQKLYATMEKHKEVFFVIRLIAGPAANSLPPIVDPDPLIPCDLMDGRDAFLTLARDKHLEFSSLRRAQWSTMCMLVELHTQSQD
Text: The following example describes materials and methods relating to a biochemical assay for EP300. IC50 values (micromolar (μM)) are summarized in Table 1, Table 2, and Table 3 under the column labeled: “EP300 Biochemistry IC50 (micromolar).”

[1] = system: H3K18Ac in HB-CLS-2 cells; test: H3K18AC in-cell western (ICW) assay; format: cell-based; conditions: H3K18Ac in-cell western; read-out: CREBBP ICW IC50
Summary of the method: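 HB-CLS-2 cells seeded 16–24 hours before 2 hr compound treatment at 37° C, 5% CO2, then methanol-fixed. H3K18Ac detected with rabbit monoclonal primary (overnight, 4° C) and 800CW anti-rabbit secondary; DRAQ5 stained DNA. Plates imaged at 700 and 800 nm for integrated intensity; IC50 in μM.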

SMILES | IC50 (CREBBP (1084-1701)) [nM] | IC50 (647V cells; Homo sapiens, 647-V) [nM] | IC50 (EP300 (P300(1048-1664))) [nM] | IC50 [1] [nM] | IC50 (647V cells) [nM]
CCn1ncc(CN(C)C(=O)c2nc(-c3cc4nc[nH]c4cc3OC)nc3ccc(Cl)cc23)c1C [Compound 51] | 570 | 520 | 690 | 520 | –
CCn1ncc(CN(C)C(=O)c2nc(-c3ccc(OCCCO)cc3C)nc3ccc(Cl)cc23)c1C [Compound 53] | 130 | 460 | 280 | 570 | –
CCn1ncc(CN(C)C(=O)c2nc(-c3ccc(OCCN4CCCC4)c(Cl)c3)nc3ccc(Cl)cc23)c1C [Compound 54] | 63 | 280 | 330 | 570 | –
CCn1ncc(CN(C)C(=O)c2nc(-c3cc(C)cc(NC4CCNCC4)c3)nc3ccc(Cl)cc23)c1C [Compound 55] | 21 | 240 | 7 | 600 | –
CCn1ncc(CN(C)C(=O)c2nc(-c3ccc(OCCNC(C)=O)cc3Cl)nc3ccc(Cl)cc23)c1C [Compound 56] | 280 | 520 | 580 | 630 | –
CCn1ncc(CN(C)C(=O)c2nc(-c3ccc(NC4CCOCC4)cn3)nc3ccc(Cl)cc23)c1C [Compound 58] | 1500 | 1400 | 610 | 670 | –
CCn1ncc(CN(C)C(=O)c2nc(-c3cc(Cl)cc(OCCNC)c3)nc3ccc(Cl)cc23)c1C [Compound 60] | 23 | 500 | 11 | 880 | –
CCn1ncc(CN(C)C(=O)c2cc(-c3cccc(N)n3)nc3ccc(Cl)cc23)c1C [Compound 63] | 440 | 1500 | 240 | 710 | –
CCn1ncc(CN(C)C(=O)c2nc(-c3ccc(NC4CCOCC4)c(OC)c3)nc3ccc(Cl)cc23)c1C [Compound 64] | 79 | 580 | 300 | 710 | –
CCn1ncc(CN(C)C(=O)c2nc(-c3cc(C(=O)NC4CCN(C)CC4)n(C)n3)nc3ccc(Cl)cc23)c1C [Compound 65] | 410 | 740 | 790 | 720 | –
CCn1ncc(CN(C)C(=O)c2nc(-c3ccc(OCCCO)c(C)c3)nc3ccc(Cl)cc23)c1C [Compound 66] | 380 | 540 | 780 | 730 | –
CCn1ncc(CN(C)C(=O)c2nc(-c3ccc4cc[nH]c4c3)nc3ccc(Cl)cc23)c1C [Compound 67] | 280 | 550 | 250 | 780 | –
CCn1ncc(CN(C)C(=O)c2nc(-c3cc(C)cc(CNC)c3)nc3ccc(Cl)cc23)c1C [Compound 69] | 100 | 420 | 610 | 880 | –
CCn1ncc(CN(C)C(=O)c2cc(-c3cn(CCNC)cn3)nc3ccc(Cl)cc23)c1C [Compound 73] | 820 | – | 360 | 1000 | 1300
CCn1ncc(CN(C)C(=O)c2cc(-c3ccc(NC(=O)CNC)c(C)n3)nc3ccc(Cl)cc23)c1C [Compound 74] | 2100 | 1500 | 1100 | 1000 | –
CCn1ncc(CN(C)C(=O)c2nc(-c3cc(C(=O)NCCCN4CCCC4)[nH]n3)nc3ccc(Cl)cc23)c1C [Compound 75] | 130 | 510 | 54 | 1000 | –
CCn1ncc(CN(C)C(=O)c2nc(-c3ccc(OCCN)c(C)c3)nc3ccc(Cl)cc23)c1C [Compound 76] | 28 | 840 | 180 | 1100 | –
CCn1ncc(CN(C)C(=O)c2nc(-c3ccnc(N)c3)nc3ccc(Cl)cc23)c1C [Compound 77] | 1600 | 760 | 1300 | 1100 | –
CCn1ncc(CN(C)C(=O)c2nc(-c3cc(C)cc(NC4CCOCC4)c3)nc3ccc(Cl)cc23)c1C [Compound 78] | 67 | 1200 | 66 | 1100 | –

SMILES | IC50 (CREBBP (1084-1701)) [nM] | IC50 (647V cells; Homo sapiens, 647-V) [nM] | IC50 (EP300 (P300(1048-1664))) [nM] | IC50 [1] [nM] | IC50 (647V cells) [nM]
CCn1ncc(CN(C)C(=O)c2nc(-c3ccc(NCCNC)c(C)n3)nc3ccc(Cl)cc23)c1C [Compound 79] | 670 | 850 | 2100 | 1200 | –
CCn1ncc(CN(C)C(=O)c2nc(-c3cc(C(=O)NCCN4CCCC4)[nH]n3)nc3ccc(Cl)cc23)c1C [Compound 80] | 1200 | 1400 | 690 | 1200 | –
CCn1ncc(CN(C)C(=O)c2nc(-c3cc(Cl)cc(CNC)c3)nc3ccc(Cl)cc23)c1C [Compound 82] | 100 | 580 | 460 | 1200 | –
CCn1ncc(CN(C)C(=O)c2nc(-c3ccc(OCCCNC)c(OC)c3)nc3ccc(Cl)cc23)c1C [Compound 84] | 820 | 850 | 2500 | 1300 | –
CCn1ncc(CN(C)C(=O)c2nc(-c3cccc(Cl)c3)nc3c(CNC)cc(Cl)cc23)c1C [Compound 85] | 180 | 1300 | 400 | 1300 | –
CCn1ncc(CN(C)C(=O)c2nc(-c3ccnc(Cl)c3)nc3ccc(NC)cc23)c1C [Compound 87] | 840 | 1400 | 880 | 1400 | –
CCn1ncc(CN(C)C(=O)c2nc(-c3ccc4nc[nH]c4c3Cl)nc3ccc(COC)cc23)c1C [Compound 89] | 180 | 1200 | 1000 | 1600 | –
CCn1ncc(CN(C)C(=O)c2cc(-c3csc(C)n3)nc3ccc(Cl)cc23)c1C [Compound 90] | 340 | – | 210 | 1600 | 1500
CCn1ncc(CN(C)C(=O)c2nc(-c3ccc(OCCCN(C)C(=O)OC(C)(C)C)c(C)c3Cl)nc3ccc(Cl)cc23)c1C [Compound 93] | 140 | 1200 | 68 | 1700 | –
CCn1ncc(CN(C)C(=O)c2cc(-c3ccnc(N)c3)nc3ccc(Cl)cc23)c1C [Compound 94] | 2100 | 1500 | 1500 | 1700 | –
CCn1ncc(CN(C)C(=O)c2nc(-c3ccc(OCCOC)cc3Cl)nc3ccc(Cl)cc23)c1C [Compound 96] | 740 | 1800 | 1500 | 1900 | –
CCn1ncc(CN(C)C(=O)c2nc(-c3cc(C)cc(NCCN(C)C(=O)OC(C)(C)C)c3)nc3ccc(Cl)cc23)c1C [Compound 99] | 2200 | 2100 | 2600 | 2000 | –
CCn1ncc(CN(C)C(=O)c2nc(-c3cn[nH]c3C)nc3ccc(Cl)cc23)c1C [Compound 100] | 11000 | 1600 | 6300 | 2100 | –
CCn1ncc(CN(C)C(=O)c2nc(-c3ccc(OCCO)c(OC)c3)nc3ccc(Cl)cc23)c1C [Compound 102] | 4000 | 2300 | 4300 | 2100 | –
CCn1ncc(CN(C)C(=O)c2nc(-c3ccc4nc(C)n(C(=O)OC(C)(C)C)c4c3)nc3ccc(Cl)cc23)c1C [Compound 104] | 9200 | 230 | 13000 | 2200 | –
CCn1ncc(CN(C)C(=O)c2nc(-c3cc(C#N)cc(NCCN(C)C(=O)OC(C)(C)C)c3)nc3ccc(Cl)cc23)c1C [Compound 105] | 3300 | 1800 | 2300 | 2400 | –
CC1CCCc2c(CN(C)C(=O)c3cc(-c4cccc(Cl)c4)nc4ccc(Cl)cc34)cnn21 (stereo not shown) [Compound 107] | 1100 | 6200 | 590 | 2500 | –
CCn1ncc(CN(C)C(=O)c2nc(-c3ccc(OCCOC)c(Cl)c3)nc3ccc(Cl)cc23)c1C [Compound 108] | 970 | 2200 | 930 | 2500 | –
